# Measured values as given in patent publication US12019067B2, “Interferometry based systems to detect small mass changes of an object in a solution” (NantBio, Inc., priority 2020, dated 2024).
# Assays:
# Format in all cases: cell-based, human
# [1] = tested on: MM.1R and MM.1S cells; test: Multiple myeloma combinatorial screening of therapeutics by LCI, 96 well plate; details: for overall result: response / overall result: titration effect: 3 concentrations per drug, quadruplicate, 96 well plate; for ranking among screened drugs: bortezomib 20 nM and carfilzomib at 50 nM
# Protocol: In this example, 6 therapeutics at 3 different concentrations, were added in quadruplicate to a 96 well plate. Thus, there were 19 different conditions: bortezomib (20, 5, 1.25 nM); carlifomib (50, 10, 2 nM); dexamethasone (300, 100, 33.3 nM); lenalidomide (50, 10, 2 nM); panobinostat (50, 10, 2 nM); pomalidomide (50, 10, 2 nM); and DMSO (300 nM) as a negative control. In clinical practice, the actual drugs/combinations may be provided by the clinician.
# In this study, a large number of cells (12,000 total cells) were screened to identify optimal drugs and concentrations. This assay, while performed on MM.1R and MM.1S cells may be performed on any suitable cell type (e.g., patient derived cancer cells from multiple myeloma, breast cancer, lung cancer, etc.). For multiple myeloma cells, a protocol for CD138+ cell enrichment from patient bone marrow is provided in the art.
# FIGS. 25B, 25C, and 25D show the results of this assay, in graphical, dot box, and table format respectively, in which multiple “best treatments” were identified using this system.
# [2] = tested on: MM.1S cells; test: LCI growth of MM.1S cells treated with bortezomib or dexamethasone
# Source text: As an alternative, MM.1 cells may be used as model cell line for assay development, wherein MM.1S refers to a strain that is sensitive to a drug such as dexamethasone and MM.1R refers to a strain that is resistant to a drug such as dexamethasone. For these types of experiments, a 12 well plate may be seeded at about 1.5××10^5 cells per plate. The desired concentration of therapeutic(s) may be added to each of the six wells. Control wells may also be established using the same dilutions with DMSO as the test well containing drug. LCI imaging may begin immediately after drug addition, with images being taken every 10-15 minutes.
# About 2.5××10^5 cells per well were placed on a poly-D-lysine 12 well plate, and incubated for one hour. About 200 nM dexamethasone, 10 nM bortezomib, or DMSO (in duplicate wells) were added to each well, and images were collected every 15 mins for up to 15 hours.
# [3] = tested on: H929 cells; test: Live cell interferometry (LCI) growth of H929 cells with or without bortezomib; details: for growth trajectory compared to the control: 96 well plate
# Protocol: A typical assay may include, for a single plate, forming groups of seven wells. A range of concentrations may be used, with each concentration (e.g., a DMSO control, varying therapeutic concentrations of 0.039 nM, 0.156 nM, 0.625 nM, 2.5 nM, 10 nM, and 40 nM) applied to a group of wells. In some embodiments, cells are plated, therapeutic(s) are added, and images are collected every 10-15 minutes for the designated period of time.
# For development of screening techniques, H929 cells may be used. H929 cells, which may be grown in serum free conditions, have the morphologic, ultrastructural, biochemical, immunologic, and cytochemical features of plasma cells (see, Gazdar et al., Blood (1986) 67(6): 1542-9). H929 cells, derived from a human patient with multiple myeloma, are commonly used for multiple myeloma testing and are sensitive to a variety of chemotherapeutic drugs.
# In this experiment, about 1681 control cells and about 1272 bortezomib treated cells were screened.
# A small but statistically significant difference in growth rate was detected at about 4.5 hrs. […] As shown in this graph, the growth trajectories of the control and bortezomib treated cells begin to diverge between 4-5 hours. […] Here, a vertical line indicates a statistically significant point of divergence using LCI techniques between 4-5 hours.
# In this experiment, about 1889 control cells and about 1248 bortezomib treated cells were screened. Imaging was initiated after drug addition, every 12 min for 7 hrs. In this study, the normalized growth rate [1/h] of DMSO control cells was 0.0152, while the normalized growth rate [1/h] of 10 nM bortezomib treated cells was 0.0139, for a difference of −8.6% between these two growth rates. As shown by the graph, after about 5 hours, the normalized growth rate of control and 10 nM bortezomib treated cells diverged. Accordingly, under these conditions, efficacy of a drug was determined in about 5 hours.
# For this graph, the same plate (as used in FIG. 21C) was imaged (for a total of 24 hours) after drug addition. An image was taken every 12 minutes for about 15 hours. About 1867 control cells and about 1426 bortezomib treated cells were screened.
# FIGS. 22A-22D show another study using bortezomib. […] A clear response to the therapeutic was observed, with the drug EC50 expected to be between 2.5-10 nM.
structure (smiles),measurement,setting,value
Nc1cccc2c1C(=O)N(C1CCC(=O)NC1=O)C2=O (stereo not shown) [pomalidomide],overall result: response,[1],some response
same,overall result: titration effect,[1],good titration effect
C[C@@H]1C[C@H]2[C@@H]3CCC4=CC(=O)C=C[C@]4(C)[C@@]3(F)[C@@H](O)C[C@]2(C)[C@@]1(O)C(=O)CO [dexamethasone],reduction of MM.1S growth,"[2]; about 200 nM dexamethasone, imaged up to 15 hours",80.5%
CC(C)C[C@H](NC(=O)[C@H](Cc1ccccc1)NC(=O)c1cnccn1)B(O)O [bortezomib],difference between growth rates of treated and DMSO control cells,[3]; 2 nM bortezomib,−6.55%
same,normalized growth rate,"[3]; 2 nM bortezomib, imaged about 15 hours",0.0172 h⁻¹
same,difference between growth rates of treated and DMSO control cells,"[3]; 10 nM bortezomib, first 7 hrs",−8.6%
same,normalized growth rate,"[3]; 10 nM bortezomib, imaged every 12 min for 7 hrs after drug addition",0.0139 h⁻¹
same,difference between growth rates of treated and DMSO control cells,"[3]; 10 nM bortezomib, later imaging about 15 hours (total 24 hours)",−119.6%
same,normalized growth rate,"[3]; 10 nM bortezomib, same plate imaged further about 15 hours (total of 24 hours after drug addition)",0.000443 h⁻¹
same,growth trajectory compared to the control,[3]; 2.5 nM,did not show a difference in growth trajectory
same,growth trajectory compared to the control,[3]; 10 nM,significant decline in growth
same,EC50,"[3]; Homo sapiens, NCI-H929, 96 well plate, 0-40 nM titration, expected value",2.5 to 10 nM
same,overall result: response,[1],good/great response
same,overall result: titration effect,[1],good titration effect
same,ranking among screened drugs,[1],most effective drugs
same,EC50,"[2]; Homo sapiens, MM1.S cells, bortezomib titration",2.5 to 10 nM
same,sensitivity of cells to drug,"[2]; MM.1S, 10 nM bortezomib",sensitive
CC(C)C[C@H](NC(=O)[C@H](CCc1ccccc1)NC(=O)CN1CCOCC1)C(=O)N[C@@H](Cc1ccccc1)C(=O)N[C@@H](CC(C)C)C(=O)[C@@]1(C)CO1 [carfilzomib],overall result: response,[1],good/great response
same,overall result: titration effect,[1],good titration effect
same,ranking among screened drugs,[1],most effective drugs
Nc1cccc2c1CN(C1CCC(=O)NC1=O)C2=O (stereo not shown) [lenalidomide],overall result: response,[1],no response
same,overall result: titration effect,[1],no titration effect
